According to patent US10233195B2, “Anti-fibrotic pyridinones” (InterMune, Inc., priority 2014, dated 2019):

Columns and labels:
[1] = tested on: TGF-b induced Endothelin-1 production; assay: ET-1 assay: inhibitory effect on TGF-b induced endothelin-1 production; type: cell-based; details: Homo sapiens, Fibroblast; fibroblasts, stimulant (TGFb, serum, LPA etc), ET-1 in media by ELISA, 4-parameter fit
In short: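 Fibroblasts (primary human lung/dermal, HFL-1, 3T3) serum-starved 0-48 h, preincubated ~30 min with compound, then stimulated (TGFb, serum or LPA) for 16-48 h. Secreted ET-1 measured by ELISA; EC50 from 4-parameter logistic fit, with CC50 from ATPlite in the same wells.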

[2] = tested on: Fibroblasts (primary human lung and dermal, HFL-1, 3T3 etc); assay: Cell proliferation assay (BrdU incorporation); type: cell-based; details: HFL1, stimulant (LPA, TGFb, serum etc), 50% inhibition of the increase of BrdU incorporation
In short: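 Serum-starved (24-48 h) fibroblasts pretreated with compound 0-30 min, then stimulated (LPA, TGFb, serum etc) for 16-24 h before BrdU, labelled a further 8 h. BrdU incorporation read by ELISA at 450 nm; IC50 taken as 50% inhibition of the stimulant-induced increase over unstimulated wells.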

| Structure (SMILES) | EC50 [1] [µM] | IC50 [2] [µM] |
| --- | --- | --- |
| Cn1cc(-c2cn(-c3ccc(OC(F)(F)F)cc3)c(=O)c3scnc23)cn1 [Compound 583] | < 50 | < 50 |
| Cn1cc(-c2cn(-c3ccc(OC(F)(F)F)cc3)c(=O)c3[nH]ncc23)cn1 [Compound 588] | > 200 | < 50 |
| O=c1c2[nH]ccc2c(-c2ccc(F)cc2)cn1-c1ccc(OC(F)(F)F)cc1 [Compound 591] | < 50 | > 200 |
| CCn1ccc2c(-c3ccc(F)cc3)cn(-c3ccc(OC(F)(F)F)cc3)c(=O)c21 [Compound 594] | < 50 | < 50 |
| CCn1ccc2c(-c3ccc(F)cc3)c[nH]c(=O)c21 [Compound 595] | < 50 | 50 to 200 |
| Cn1ccc2c(-c3cn[nH]c3)cn(-c3ccc(C#N)cc3)c(=O)c21 [Compound 600] | < 50 | > 200 |
| CCOc1ccc(-n2cc(-c3cn[nH]c3)c3ccn(C)c3c2=O)c(C)c1 [Compound 601] | < 50 | < 50 |
| Cn1ccc2c(-c3cn[nH]c3)cn(-c3ccc(OC(F)(F)F)cc3)c(=O)c21 [Compound 602] | < 50 | < 50 |
| Cn1cc(-c2cn(-c3ccc(OC(F)(F)F)cc3)c(=O)c3[nH]ccc23)cn1 [Compound 603] | < 50 | < 50 |
| O=c1c2[nH]ccc2c(-c2cn[nH]c2)cn1-c1ccc(OC(F)(F)F)cc1 [Compound 604] | < 50 | < 50 |
| Cn1cc(-c2cn(-c3ccc(Cl)cc3)c(=O)c3[nH]ccc23)cn1 [Compound 605] | < 50 | < 50 |
| O=c1c2[nH]ccc2c(-c2cn[nH]c2)cn1-c1ccc(Cl)cc1 [Compound 606] | < 50 | < 50 |
| CCOc1ccc(-n2cc(-c3cn[nH]c3)c3cc[nH]c3c2=O)c(C)c1 [Compound 607] | < 50 | < 50 |
| O=c1c2[nH]ccc2ccn1-c1ccc(OC(F)(F)F)cc1 [Compound 609] | < 50 | < 50 |
| CCn1ccc2ccn(-c3ccc(OC(F)(F)F)cc3)c(=O)c21 [Compound 610] | < 50 | < 50 |
| CCn1ccc2c(-c3cnn(CCO)c3)cn(-c3ccc(OC(F)(F)F)cc3)c(=O)c21 [Compound 615] | < 50 | < 50 |
| CCn1cnc2c(-c3cnn(C)c3)cn(-c3ccc(OC(F)(F)F)cc3)c(=O)c21 [Compound 617] | < 50 | 50 to 200 |
| CCn1cnc2c(-c3cnn(C)c3)c[nH]c(=O)c21 [Compound 618] | 50 to 200 | 50 to 200 |
| CCn1nc2c(-c3cnn(C)c3)cn(-c3ccc(OC(F)(F)F)cc3)c(=O)c2n1 [Compound 619] | < 50 | < 50 |
| CCn1nc2c(-c3cn[nH]c3)cn(-c3ccc(OC(F)(F)F)cc3)c(=O)c2n1 [Compound 620] | < 50 | < 50 |
| CCn1nnc2c(=O)n(-c3ccc(OC(F)(F)F)cc3)cc(-c3cnn(C)c3)c21 [Compound 624] | < 50 | < 50 |
| CCn1nnc2c(-c3cnn(C)c3)cn(-c3ccc(OC(F)(F)F)cc3)c(=O)c21 [Compound 625] | < 50 | < 50 |

| Structure (SMILES) | EC50 [1] [µM] | IC50 [2] [µM] |
| --- | --- | --- |
| CCn1ccc2c(=O)n(-c3ccc(OC(F)(F)F)cc3)cc(-c3ccc(F)cc3)c21 [Compound 626] | < 50 | < 50 |
| CCOc1ccc(-n2cc(-c3ccnnc3)c(C)cc2=O)c(C)c1 [Compound 629] | < 50 | > 200 |
| Cn1cc(-c2cn(-c3ccc(OC(F)(F)F)cc3)c(=O)c3[nH]nnc23)cn1 [Compound 631] | < 50 | > 200 |
| CCn1cnc2c(=O)n(-c3ccc(OC(F)(F)F)cc3)cc(-c3cnn(C)c3)c21 [Compound 636] | > 200 | > 200 |
| CC(C)n1ccc2c(-c3cnn(C)c3)cn(-c3ccc(OC(F)(F)F)cc3)c(=O)c21 [Compound 647] | < 50 | < 50 |
| CC(C)n1ccc2c(-c3cn[nH]c3)cn(-c3ccc(OC(F)(F)F)cc3)c(=O)c21 [Compound 648] | < 50 | < 50 |
| Cn1cc(-c2cn(-c3ccc(OC(F)(F)F)cc3)c(=O)c3c2ccn3C2CC2)cn1 [Compound 649] | < 50 | 50 to 200 |
| O=c1c2c(ccn2C2CC2)c(-c2cn[nH]c2)cn1-c1ccc(OC(F)(F)F)cc1 [Compound 650] | < 50 | < 50 |
| COCCn1ccc2c(-c3cnn(C)c3)cn(-c3ccc(OC(F)(F)F)cc3)c(=O)c21 [Compound 651] | < 50 | < 50 |
| CCn1cc2c(-c3cnn(C)c3)cn(-c3ccc(OC(F)(F)F)cc3)c(=O)c2n1 [Compound 657] | < 50 | < 50 |
| Cn1cc(-c2cn(-c3ccc(OC(F)(F)F)cc3)c(=O)c3c2ncn3C)cn1 [Compound 665] | < 50 | 50 to 200 |
| O=c1c2[nH]nnc2c(-c2ccc(F)cc2)cn1-c1ccc(OC(F)(F)F)cc1 [Compound 681] | 50 to 200 | < 50 |
| CCn1nnc2c(=O)n(-c3ccc(OC(F)(F)F)cc3)cc(-c3ccc(F)cc3)c21 [Compound 682] | < 50 | < 50 |
| CCn1nnc2c(-c3ccc(F)cc3)cn(-c3ccc(OC(F)(F)F)cc3)c(=O)c21 [Compound 683] | < 50 | < 50 |
| Cn1cc(-c2cn(-c3ccc(OC(F)(F)F)cc3)c(=O)c3c2nnn3CCF)cn1 [Compound 684] | 50 to 200 | < 50 |
| CCOc1ccc(-n2cc(-c3ccnnc3)c3nn(CC)nc3c2=O)c(C)c1 [Compound 685] | < 50 | < 50 |
| CCOc1ccc(-n2cc(-c3cnn(C)c3)c3nn(CC)nc3c2=O)c(C)c1 [Compound 686] | 50 to 200 | < 50 |
| Cn1cc(-c2cn(-c3ccc(OC(F)(F)F)cc3)c(=O)c3nnn(CCF)c23)cn1 [Compound 687] | < 50 | < 50 |
| CCn1nc2c(-c3cnn(C)c3)cn(-c3ccc(OCCOC)cc3)c(=O)c2n1 [Compound 688] | 50 to 200 | 50 to 200 |
| O=c1c2[nH]ncc2c(-c2ccc(F)cc2)cn1-c1ccc(OC(F)(F)F)cc1 [Compound 689] | < 50 | < 50 |
| Cc1nc2c(-c3cnn(C)c3)cn(-c3ccc(OC(F)(F)F)cc3)c(=O)c2s1 [compound 584] | < 50 | < 50 |
